pIC50: −log10 of the molar value.

Sequence of mouse TRPM3α2 (mTRPM3) ion channel (J9SQF3 other isoform, or with tags, fused parts or gaps): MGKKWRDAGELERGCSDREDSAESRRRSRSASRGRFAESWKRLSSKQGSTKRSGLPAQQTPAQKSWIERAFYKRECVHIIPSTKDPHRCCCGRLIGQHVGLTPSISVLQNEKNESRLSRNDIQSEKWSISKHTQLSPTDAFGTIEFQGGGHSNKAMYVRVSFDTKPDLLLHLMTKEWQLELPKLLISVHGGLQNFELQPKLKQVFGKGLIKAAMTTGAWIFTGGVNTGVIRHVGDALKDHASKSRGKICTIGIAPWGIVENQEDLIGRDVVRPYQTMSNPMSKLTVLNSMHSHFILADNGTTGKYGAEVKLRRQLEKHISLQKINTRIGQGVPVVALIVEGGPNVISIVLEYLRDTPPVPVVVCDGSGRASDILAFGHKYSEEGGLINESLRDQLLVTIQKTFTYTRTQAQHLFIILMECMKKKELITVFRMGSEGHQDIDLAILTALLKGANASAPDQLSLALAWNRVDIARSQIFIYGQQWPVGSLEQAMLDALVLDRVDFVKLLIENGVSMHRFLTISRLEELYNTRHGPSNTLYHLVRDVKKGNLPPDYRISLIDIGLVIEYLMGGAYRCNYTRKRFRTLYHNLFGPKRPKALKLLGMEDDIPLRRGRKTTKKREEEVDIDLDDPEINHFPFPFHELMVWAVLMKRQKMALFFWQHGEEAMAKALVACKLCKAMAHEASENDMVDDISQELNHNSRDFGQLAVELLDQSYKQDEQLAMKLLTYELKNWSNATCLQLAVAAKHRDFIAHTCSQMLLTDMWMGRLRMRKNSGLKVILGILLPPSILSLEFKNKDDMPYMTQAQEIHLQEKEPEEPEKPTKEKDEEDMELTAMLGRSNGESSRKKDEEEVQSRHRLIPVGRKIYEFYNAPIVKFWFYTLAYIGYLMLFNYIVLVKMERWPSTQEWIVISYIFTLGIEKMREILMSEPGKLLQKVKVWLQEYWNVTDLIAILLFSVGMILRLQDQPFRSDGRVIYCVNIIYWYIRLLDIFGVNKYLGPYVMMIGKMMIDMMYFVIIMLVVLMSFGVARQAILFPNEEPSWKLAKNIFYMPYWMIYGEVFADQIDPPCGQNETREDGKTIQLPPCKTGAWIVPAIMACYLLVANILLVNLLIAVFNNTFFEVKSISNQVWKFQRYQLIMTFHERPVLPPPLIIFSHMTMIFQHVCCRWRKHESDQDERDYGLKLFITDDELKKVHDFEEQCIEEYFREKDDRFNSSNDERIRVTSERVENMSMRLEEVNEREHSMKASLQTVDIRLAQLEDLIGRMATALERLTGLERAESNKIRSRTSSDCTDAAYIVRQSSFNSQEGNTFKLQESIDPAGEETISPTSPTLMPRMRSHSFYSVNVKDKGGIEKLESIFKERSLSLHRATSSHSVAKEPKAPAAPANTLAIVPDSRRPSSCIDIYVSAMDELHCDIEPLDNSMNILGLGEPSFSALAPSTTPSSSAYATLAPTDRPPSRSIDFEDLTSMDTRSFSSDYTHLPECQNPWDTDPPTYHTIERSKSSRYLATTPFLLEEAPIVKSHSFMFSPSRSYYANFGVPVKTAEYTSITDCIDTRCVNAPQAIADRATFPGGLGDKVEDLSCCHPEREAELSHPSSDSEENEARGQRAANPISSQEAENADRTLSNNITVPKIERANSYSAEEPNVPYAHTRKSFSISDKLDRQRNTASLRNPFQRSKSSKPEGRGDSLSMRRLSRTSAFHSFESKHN

The target of the first assay is mouse TRPM3α2 (mTRPM3) ion channel (Mus musculus (Mouse), UniProt J9SQF3). In words: TRPM3 ion channel driven Ca2+ uptake, Fluo-4 AM assay, mTRPM3alpha2 overexpressing flip-in HEK293 cells stimulated with pregnenolone sulfate. The assay is classed as cell-based. As to conditions: PS (50 μM) stimulated, cpd 001-199. An outline of the steps:
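Read-out is Ca2+ influx via Fluo-4 AM fluorescence at 485/535 nm, taken right after seeding ~2000 cells/well onto compound with 50 μM PS. Inhibition computed from RFU between vehicle-stimulated and positive-control-inhibitor wells; cells were mTRPM3α2-overexpressing flip-in HEK293.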
`Cc1ncsc1COc1ccc2oc(C)c(C(=O)NC3COCC3O)c2c1` (single isomer, unassigned; dia 1) [162-Dia 1-En1] showed a pIC50 of more than 6.00.
Take `Cc1ncsc1COc1ccc2oc(C)c(C(=O)NC3COCC3O)c2c1` (single isomer, unassigned; dia 1) [162-Dia 1-En2]: the pIC50 is more than 6.00.
`Cc1oc2ccc(OCC3CCNC3)cc2c1C(=O)O` (stereo not shown) [compound 003, 2-methyl-5-(pyrrolidin-3-ylmethoxy)benzofuran-3-carboxylic acid] gave a negative-log IC50 (pIC50) of less than 4.70.
In turn, `Cc1oc2ccc(OCc3ccncc3)cc2c1C(=O)O` [compound 004, 2-methyl-5-(pyridin-4-ylmethoxy)benzofuran-3-carboxylic acid] showed a negative-log IC50 (pIC50) of less than 4.70.
In turn, `Cc1oc2ccc(OCc3ccnn3C)cc2c1C(=O)O` [compound 008, 2-methyl-5-((1-methyl-1H-pyrazol-5-yl)methoxy)benzofuran-3-carboxylic acid] gave a pIC50 of less than 4.70.
Same read-out and setting: to `Cc1oc2ccc(OCC3CCOCC3)cc2c1C(=O)O` [compound 015, 2-methyl-5-((tetrahydro-2H-pyran-4-yl)methoxy)benzofuran-3-carboxylic acid] belongs less than 4.70; to `Cc1noc(C)c1COc1ccc2oc(C)c(C(=O)O)c2c1` [compound 016, 5-((3,5-dimethylisoxazol-4-yl)methoxy)-2-methylbenzofuran-3-carboxylic acid], less than 4.70; to `Cc1oc2ccc(OCc3nc4ccccc4s3)cc2c1C(=O)O` [compound 017, 5-(benzo[d]thiazol-2-ylmethoxy)-2-methylbenzofuran-3-carboxylic acid], less than 4.70.
Compound `Cc1oc2ccc(OCC3CCN(C(=O)OC(C)(C)C)C3)cc2c1C(=O)O` (stereo not shown) [compound 019, 5-((1-(tert-butoxycarbonyl)pyrrolidin-3-yl)methoxy)-2-methylbenzofuran-3-carboxylic acid] gave a pIC50 of less than 4.70.
As to `Cc1oc2ccc(OCc3cccnc3)cc2c1C(=O)N[C@H]1CCNC1` [compound 022, (S)-2-methyl-5-(pyridin-3-ylmethoxy)-N-(pyrrolidin-3-yl)benzofuran-3-carboxamide], the pIC50 was more than 6.00.
The same measure, in the same setting: to `Cc1oc2ccc(OCc3cncs3)cc2c1C(=O)N[C@H]1CCNC1` [compound 024, (S)-2-methyl-N-(pyrrolidin-3-yl)-5-(thiazol-5-ylmethoxy)benzofuran-3-carboxamide] belongs more than 6.00.
Consider `Cc1oc2ccc(OCc3nccs3)cc2c1C(=O)N[C@H]1CCNC1` [compound 025, (S)-2-methyl-N-(pyrrolidin-3-yl)-5-(thiazol-2-ylmethoxy)benzofuran-3-carboxamide], for which the pIC50 was more than 6.00.
The compound `Cc1oc2ccc(OCc3ccccn3)cc2c1C(=O)NC1CCNC1=O` (stereo not shown) [compound 026, 2-methyl-N-(2-oxopyrrolidin-3-yl)-5-(pyridin-2-ylmethoxy)benzofuran-3-carboxamide] had a pIC50 of more than 6.00.
`Cc1oc2ccc(OCc3cccnc3)cc2c1C(=O)NC1CCNC1=O` (stereo not shown) [compound 027, 2-methyl-N-(2-oxopyrrolidin-3-yl)-5-(pyridin-3-ylmethoxy)benzofuran-3-carboxamide]: the pIC50 is more than 6.00.
The same measure, in the same setting: to `Cc1cncc(COc2ccc3oc(C)c(C(=O)N[C@H]4CCNC4)c3c2)c1` [compound 028, (S)-2-methyl-5-((5-methylpyridin-3-yl)methoxy)-N-(pyrrolidin-3-yl)benzofuran-3-carboxamide] belongs more than 6.00; to `Cc1cccc(COc2ccc3oc(C)c(C(=O)N[C@H]4CCNC4)c3c2)n1` [compound 029, (S)-2-methyl-5-((6-methylpyridin-2-yl)methoxy)-N-(pyrrolidin-3-yl)benzofuran-3-carboxamide], more than 6.00; to `Cc1ccc(COc2ccc3oc(C)c(C(=O)NC4CCOC4)c3c2)cn1` (stereo not shown) [compound 033, 2-methyl-5-((6-methylpyridin-3-yl)methoxy)-N-(tetrahydrofuran-3-yl)benzofuran-3-carboxamide], less than 4.70.
The same measure, in the same setting: to `Cc1oc2ccc(OCc3ccsc3)cc2c1C(=O)NC1CCNC1=O` (stereo not shown) [compound 035, 2-methyl-N-(2-oxopyrrolidin-3-yl) -5-(thiophen-3-ylmethoxy)benzofuran-3-carboxamide] belongs more than 6.00; to `Cc1cncc(COc2ccc3oc(C)c(C(=O)NC4CCNC4=O)c3c2)c1` (stereo not shown) [compound 038, 2-methyl-5-((5-methylpyridin-3-yl)methoxy)-N-(2-oxopyrrolidin-3-yl)benzofuran-3-carboxamide], more than 6.00.
The compound `COc1ccncc1COc1ccc2oc(C)c(C(=O)NC3CCOC3)c2c1` (stereo not shown) [compound 040, 5-((4-methoxypyridin-3-yl)methoxy)-2-methyl-N-(tetrahydrofuran-3-yl)benzofuran-3-carboxamide] gave a pIC50 of less than 4.70.
In turn, `Cc1oc2ccc(OCc3cccs3)cc2c1C(=O)NC1CCN(C)CC1` [compound 041, 2-methyl-N-(1-methylpiperidin-4-yl)-5-(thiophen-2-ylmethoxy)benzofuran-3-carboxamide] had a negative-log IC50 (pIC50) of more than 6.00.
The compound `Cc1ncsc1COc1ccc2oc(C)c(C(=O)NC3CCNC3=O)c2c1` (stereo not shown) [compound 042, 2-methyl-5-((4-methylthiazol-5-yl)methoxy)-N-(2-oxopyrrolidin-3-yl)benzofuran-3-carboxamide] showed a pIC50 of more than 6.00.
On the same count and under the same terms, then `Cc1csc(COc2ccc3oc(C)c(C(=O)NC4CCNC4=O)c3c2)n1` (stereo not shown) [compound 043, 2-methyl-5-((4-methylthiazol-2-yl)methoxy)-N-(2-oxopyrrolidin-3-yl)benzofuran-3-carboxamide], with more than 6.00; and `Cc1oc2ccc(OCc3ccccn3)cc2c1C(=O)NC1(CO)CCOCC1` [compound 047, N-(4-(hydroxymethyl)tetrahydro-2H-pyran-4-yl)-2-methyl-5-(pyridin-2-ylmethoxy)benzofuran-3-carboxamide], with more than 6.00; and `Cc1oc2ccc(OCc3ccccn3)cc2c1C(=O)NC1CCNCC1(F)F` (stereo not shown) [compound 048, N-(3,3-difluoropiperidin-4-yl)-2-methyl-5-(pyridin-2-ylmethoxy)benzofuran-3-carboxamide], with more than 6.00.
Turning to `Cc1oc2ccc(OCc3nccs3)cc2c1C(=O)NC1(CO)CCOCC1` [compound 049, N-(4-(hydroxymethyl)tetrahydro-2H-pyran-4-yl)-2-methyl-5-(thiazol-2-ylmethoxy)benzofuran-3-carboxamide], the pIC50 was more than 6.00.
Still for that read-out and setting: to `COc1ncccc1COc1ccc2oc(C)c(C(=O)NC3CCN(C)CC3)c2c1` [compound 051, 5-((2-methoxypyridin-3-yl)methoxy)-2-methyl-N-(1-methylpiperidin-4-yl)benzofuran-3-carboxamide] belongs more than 6.00.

The assay is the same for the next values; noted with them: PS (50 μM) stimulated, cpds. 608-666.
Take `Cc1oc2ccc(OCc3nccn3C)cc2c1C(=O)NC1CNCC1(F)F` (single isomer, unassigned) [cpd 638-En 1]: the pIC50 was more than 6.00.
Turning to `Cc1oc2ccc(OCc3nccn3C)cc2c1C(=O)NC1CNCC1(F)F` (single isomer, unassigned) [cpd 638-En 2], the pIC50 was 4.70 to 6.00.
On the same count and under the same terms, then `Cc1oc2ccc(OCc3ccnn3C)cc2c1C(=O)NC1CNCC1(F)F` (single isomer, unassigned) [cpd 639-En 1], with more than 6.00; and `Cc1oc2ccc(OCc3nccn3C)cc2c1C(=O)NC1COCC1(F)F` (single isomer, unassigned) [cpd 641-En 1], with 4.70 to 6.00.
As for `Cc1oc2ccc(OCc3ccnn3C)cc2c1C(=O)NC1COCC1(F)F` (single isomer, unassigned) [cpd 642-En 1], the pIC50 was more than 6.00.
As for `Cc1ncc(COc2ccc3oc(C)c(C(=O)NC4COCC4(F)F)c3c2)s1` (single isomer, unassigned) [cpd 643-En 1], the negative logarithm of the IC50 (pIC50) is more than 6.00.
Compound `Cc1ncsc1COc1ccc2oc(C)c(C(=O)NC3COCC3(F)F)c2c1` (single isomer, unassigned) [cpd 646-En 1] showed a pIC50 of more than 6.00.
For `Cc1oc2ccc(OCc3ccccn3)cc2c1C(=O)NC1COCC1(F)F` (single isomer, unassigned) [cpd 647-En 1], the pIC50 was more than 6.00.
For `Cc1oc2ccc(OCc3cccnc3O)cc2c1C(=O)NC1COCC1(F)F` (single isomer, unassigned) [cpd 648-En 1], the pIC50 was more than 6.00.
For the compound `Cc1ncsc1COc1ccc2oc(C)c(C(=O)NC3CCCCNC3=O)c2c1` (single isomer, unassigned) [cpd 661-En 1], the pIC50 was more than 6.00.

Staying with this assay, now noted: PS (50 μM) stimulated, cpds. 667-751.
Turning to `Cc1ncc(COc2ccc3oc(C)c(C(=O)NC(C)(CO)C(N)=O)c3c2)o1` (single isomer, unassigned) [cpd 722-En 1], the pIC50 is more than 6.00.
Turning to `Cc1ncc(COc2ccc3oc(C)c(C(=O)NC(C)(CO)C(N)=O)c3c2)o1` (single isomer, unassigned) [cpd 722-En 2], the pIC50 is more than 6.00.
In turn, `Cc1ncsc1COc1ccc2oc(C)c(C(=O)NC3CCOCC3(F)F)c2c1` (single isomer, unassigned) [cpd 723-En 1] had a negative-log IC50 (pIC50) of more than 6.00.
In turn, `Cc1ncc(COc2ccc3oc(C)c(C(=O)NC4CCOCC4(F)F)c3c2)s1` (single isomer, unassigned) [cpd 724-En 1] had a negative-log IC50 (pIC50) of more than 6.00.
With `Cc1ncc(COc2ccc3oc(C)c(C(=O)NC4CCOCC4(F)F)c3c2)s1` (single isomer, unassigned) [cpd 724-En 2], the pIC50 is 4.70 to 6.00.
As for `Cc1ncc(COc2ccc3oc(C)c(C(=O)NC(CS(C)(=O)=O)C(N)=O)c3c2)s1` (single isomer, unassigned) [cpd 726-En 1], the negative-log IC50 (pIC50) was more than 6.00.
Consider `Cc1ncc(COc2ccc3oc(C)c(C(=O)NC4CCS(=N)(=O)C4)c3c2)s1` (single isomer, unassigned) [cpd 727-En 1], for which the pIC50 is 4.70 to 6.00.
Still for that read-out and setting: to `Cc1oc2ccc(OCc3ccccn3)cc2c1C(=O)NC(C)(CO)C(N)=O` (single isomer, unassigned) [cpd 738-En 1] belongs more than 6.00; to `Cc1oc2ccc(OCc3ccc(F)cn3)cc2c1C(=O)NC(C)(CO)C(N)=O` (single isomer, unassigned) [cpd 739-En 1], more than 6.00.

The values are drawn from patent publication US12209081B2 (Katholieke Universiteit Leuven, priority 2020, dated 2025).
